Peptide text beside a SMILES is read from it. * marks the point of attachment. Tos = Cc1ccc(S(=O)(=O)*)cc1

System in the first data set: not listed separately
Put plainly: Metabolic stability in human liver microsome at 8 uM after 1 hr. Type of data set: ADME. The conditions noted are these: liver microsomes, read-out: Stability.
For the molecule `O=C(O)[C@H](Cc1ccc(OCc2c(Cl)cccc2Cl)cc1)NC(=O)[C@@H]1OCO[C@H]1C(=O)NC1CC1`, the remaining at 1 h, 8 µM came to 72%.
`O=C(O)[C@H](Cc1ccc(OCc2c(Cl)cccc2Cl)cc1)NC(=O)[C@@H]1OCO[C@H]1C(=O)Nc1nccs1`: the remaining at 1 h, 8 µM was 52%.

In the next data set the target is T1, Integrin alpha-4 (Homo sapiens, UniProt P13612).
T1 sequence (P13612 whole entry): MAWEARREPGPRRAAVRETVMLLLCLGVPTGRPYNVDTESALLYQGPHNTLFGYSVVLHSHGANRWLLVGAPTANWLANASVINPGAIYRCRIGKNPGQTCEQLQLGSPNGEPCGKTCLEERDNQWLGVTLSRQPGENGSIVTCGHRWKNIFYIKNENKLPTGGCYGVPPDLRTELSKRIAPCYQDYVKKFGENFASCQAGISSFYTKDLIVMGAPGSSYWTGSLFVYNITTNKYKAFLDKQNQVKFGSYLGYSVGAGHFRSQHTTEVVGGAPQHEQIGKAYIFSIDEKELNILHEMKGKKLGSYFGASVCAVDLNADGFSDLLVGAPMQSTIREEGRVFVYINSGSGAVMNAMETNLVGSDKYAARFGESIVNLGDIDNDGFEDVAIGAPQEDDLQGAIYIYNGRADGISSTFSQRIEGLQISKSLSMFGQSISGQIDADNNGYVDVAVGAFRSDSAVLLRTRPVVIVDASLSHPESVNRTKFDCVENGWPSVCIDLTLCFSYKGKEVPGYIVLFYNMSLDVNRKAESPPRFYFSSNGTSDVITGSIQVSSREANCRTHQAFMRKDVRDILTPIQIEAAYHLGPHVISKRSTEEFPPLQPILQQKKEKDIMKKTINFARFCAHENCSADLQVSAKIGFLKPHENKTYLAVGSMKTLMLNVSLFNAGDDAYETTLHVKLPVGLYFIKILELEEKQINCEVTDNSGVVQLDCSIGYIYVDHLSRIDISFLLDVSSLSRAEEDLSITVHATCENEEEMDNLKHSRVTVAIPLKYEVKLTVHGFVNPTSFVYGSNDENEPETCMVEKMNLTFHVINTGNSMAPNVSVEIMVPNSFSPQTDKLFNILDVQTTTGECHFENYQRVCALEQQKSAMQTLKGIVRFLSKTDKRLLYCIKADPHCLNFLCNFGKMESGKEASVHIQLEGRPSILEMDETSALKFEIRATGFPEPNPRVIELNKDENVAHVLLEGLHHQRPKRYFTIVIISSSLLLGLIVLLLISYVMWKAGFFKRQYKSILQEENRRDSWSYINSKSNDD
The experiment in a line: Displacement of VCAM1 from VLA4 receptor in human U937 cells. It counts as cell-based, U-937.
Settings: not given
`CCCCCCCNC(=O)[C@@H]1OCO[C@H]1C(=O)N[C@@H](Cc1ccc(OCc2c(Cl)cccc2Cl)cc1)C(=O)O` showed an IC50 of 4.4 µM.
Molecule `O=C(Nc1ccc(C[C@H](NC(=O)[C@@H]2OCO[C@H]2C(=O)Nc2ccccc2-c2ccccc2)C(=O)O)cc1)c1ccncc1` returned an IC50 of 2.7 µM. Compared with the last molecule, the IC50 is about 1.6-fold lower.
On to `O=C(Nc1ccc(C[C@H](NC(=O)[C@@H]2OCO[C@H]2C(=O)Nc2ccccc2-c2ccccc2)C(=O)O)cc1)c1ccccn1`, for which the IC50 worked out at 8.3 µM.
For `O=C(Nc1ccc(C[C@H](NC(=O)[C@@H]2OCO[C@H]2C(=O)Nc2ccccc2-c2ccccc2)C(=O)O)cc1)c1cccnc1`, the IC50 was found to be 9.5 µM.
Consider `O=C(Nc1ccc(C[C@H](NC(=O)[C@@H]2OCO[C@H]2C(=O)Nc2ccccc2-c2ccccc2)C(=O)O)cc1)c1cc(Cl)nc(Cl)c1`, for which the IC50 came out at 6.3 µM.
The molecule `O=C(Nc1ccc(C[C@H](NC(=O)[C@@H]2OCO[C@H]2C(=O)Nc2ccccc2-c2ccccc2)C(=O)O)cc1)c1c(Cl)cccc1Cl` returned an IC50 of 0.1 µM.
`O=C(Nc1ccc(C[C@H](NC(=O)[C@@H]2OCO[C@H]2C(=O)Nc2ccccc2-c2ccccc2)C(=O)O)cc1)c1ccccc1` registered an IC50 of 9 µM.
As for `COc1ccccc1C(=O)Nc1ccc(C[C@H](NC(=O)[C@@H]2OCO[C@H]2C(=O)Nc2ccccc2-c2ccccc2)C(=O)O)cc1`, the IC50 was 6.3 µM.
Still for that read-out and setting: in the case of `O=C(O)[C@H](Cc1ccc(OCc2c(F)cccc2F)cc1)NC(=O)[C@@H]1OCO[C@H]1C(=O)Nc1ccccc1-c1ccccc1` it was 7.9 µM.
In the case of `O=C(O)[C@H](Cc1ccc(OCc2ccccc2Cl)cc1)NC(=O)[C@@H]1OCO[C@H]1C(=O)Nc1ccccc1-c1ccccc1`, the IC50 worked out at 8.7 µM.
Molecule `O=C(O)[C@H](Cc1ccc(OCc2c(Cl)cccc2Cl)cc1)NC(=O)[C@@H]1OCO[C@H]1C(=O)Nc1ccccc1-c1ccccc1` displayed an IC50 of 0.5 µM.
`O=C(O)[C@H](Cc1ccc(OCc2c(Cl)cccc2Cl)cc1)NC(=O)[C@@H]1OCO[C@H]1C(=O)NC1CCCCC1` yielded an IC50 of 1.4 µM. This IC50 is about 2.8-fold higher than that of the molecule before.
Regarding `CNC(=O)[C@@H]1OCO[C@H]1C(=O)N[C@@H](Cc1ccc(OCc2c(Cl)cccc2Cl)cc1)C(=O)O`, the IC50 was determined as 1.2 µM.
The molecule `CCNC(=O)[C@@H]1OCO[C@H]1C(=O)N[C@@H](Cc1ccc(OCc2c(Cl)cccc2Cl)cc1)C(=O)O` displayed an IC50 of 2.1 µM.
`CCCCNC(=O)[C@@H]1OCO[C@H]1C(=O)N[C@@H](Cc1ccc(OCc2c(Cl)cccc2Cl)cc1)C(=O)O` showed an IC50 of 1.5 µM.
Molecule `CC(C)CCNC(=O)[C@@H]1OCO[C@H]1C(=O)N[C@@H](Cc1ccc(OCc2c(Cl)cccc2Cl)cc1)C(=O)O` displayed an IC50 of 1.1 µM. This IC50 and that of the molecule before are within 1.5-fold of each other.
`CN(C)C(=O)[C@@H]1OCO[C@H]1C(=O)N[C@@H](Cc1ccc(OCc2c(Cl)cccc2Cl)cc1)C(=O)O` displayed an IC50 of 1.5 µM.
Take `CC(C)NC(=O)[C@@H]1OCO[C@H]1C(=O)N[C@@H](Cc1ccc(OCc2c(Cl)cccc2Cl)cc1)C(=O)O`: the IC50 amounted to 6.6 µM.
In the case of `CC(C)(C)NC(=O)[C@@H]1OCO[C@H]1C(=O)N[C@@H](Cc1ccc(OCc2c(Cl)cccc2Cl)cc1)C(=O)O`, the IC50 turned out to be 1.2 µM. This IC50 is about 5.5-fold lower than that of the molecule before.
On the same count and under the same terms, in the case of `O=C(O)[C@H](Cc1ccc(OCc2c(Cl)cccc2Cl)cc1)NC(=O)[C@@H]1OCO[C@H]1C(=O)NC1CC1` it was 0.3 µM; in that of `O=C(O)[C@H](Cc1ccc(OCc2c(Cl)cccc2Cl)cc1)NC(=O)[C@@H]1OCO[C@H]1C(=O)Nc1nc2ccccc2s1`, 0.6 µM.
Same read-out and setting: in the case of `O=C(O)[C@H](Cc1ccc(OCc2c(Cl)cccc2Cl)cc1)NC(=O)[C@@H]1OCO[C@H]1C(=O)NCc1cccs1` it was 0.7 µM; in that of `O=C(O)[C@H](Cc1ccc(OCc2c(Cl)cccc2Cl)cc1)NC(=O)[C@@H]1OCO[C@H]1C(=O)NCCc1c[nH]c2ccccc12`, 0.6 µM.
As for `O=C(O)[C@H](Cc1ccc(OCc2c(Cl)cccc2Cl)cc1)NC(=O)[C@@H]1OCO[C@H]1C(=O)NCc1ccc2c(c1)OCO2`, the IC50 was 3 µM.
`O=C(O)[C@H](Cc1ccc(OCc2c(Cl)cccc2Cl)cc1)NC(=O)[C@@H]1OCO[C@H]1C(=O)Nc1ccccc1F` displayed an IC50 of 0.6 µM.
The same measure, in the same setting: in the case of `O=C(O)[C@H](Cc1ccc(OCc2c(Cl)cccc2Cl)cc1)NC(=O)[C@@H]1OCO[C@H]1C(=O)Nc1ccccc1Cl` it was 0.7 µM; in that of `O=C(O)[C@H](Cc1ccc(OCc2c(Cl)cccc2Cl)cc1)NC(=O)[C@@H]1OCO[C@H]1C(=O)Nc1ccc(Cl)cc1`, 2.8 µM; in that of `COc1ccccc1NC(=O)[C@@H]1OCO[C@H]1C(=O)N[C@@H](Cc1ccc(OCc2c(Cl)cccc2Cl)cc1)C(=O)O`, 0.6 µM.
`O=C(O)[C@H](Cc1ccc(OCc2c(Cl)cccc2Cl)cc1)NC(=O)[C@@H]1OCO[C@H]1C(=O)Nc1ccccc1` yielded an IC50 of 1.5 µM.
The same measure, in the same setting: in the case of `O=C(O)[C@H](Cc1ccc(OCc2c(Cl)cccc2Cl)cc1)NC(=O)[C@@H]1OCO[C@H]1C(=O)Nc1ccccc1C(F)(F)F` it was 0.9 µM; in that of `O=C(O)[C@H](Cc1ccc(OCc2c(Cl)cccc2Cl)cc1)NC(=O)[C@@H]1OCO[C@H]1C(=O)Nc1nccs1`, 0.2 µM.
The molecule `Cc1nnc(NC(=O)[C@@H]2OCO[C@H]2C(=O)N[C@@H](Cc2ccc(OCc3c(Cl)cccc3Cl)cc2)C(=O)O)s1` showed an IC50 of 1.5 µM.
For `O=C(O)[C@H](Cc1ccc(OCc2c(Cl)cccc2Cl)cc1)NC(=O)[C@@H]1OCO[C@H]1C(=O)Nc1c(F)cccc1F`, the IC50 was determined as 0.5 µM. Against the preceding molecule, the IC50 is about 3-fold lower.
Molecule `O=C(O)[C@H](Cc1ccc(OCc2c(Cl)cccc2Cl)cc1)NC(=O)[C@@H]1OCO[C@H]1C(=O)Nc1c(Cl)cccc1Cl` yielded an IC50 of 0.7 µM. This IC50 and that of the molecule before are within 1.5-fold of each other.
For the molecule `O=C(O)[C@H](Cc1ccc(OCc2c(Cl)cccc2Cl)cc1)NC(=O)[C@@H]1OCO[C@H]1C(=O)Nc1c(Cl)cncc1Cl`, the IC50 amounted to 0.4 µM.
On to `CC(C)(C)c1cc(NC(=O)[C@@H]2OCO[C@H]2C(=O)N[C@@H](Cc2ccc(OCc3c(Cl)cccc3Cl)cc2)C(=O)O)n(Cc2ccccc2)n1`, for which the IC50 came to 1 µM.
Turning to `Cc1ccc(-n2nc(C(C)(C)C)cc2NC(=O)[C@@H]2OCO[C@H]2C(=O)N[C@@H](Cc2ccc(OCc3c(Cl)cccc3Cl)cc2)C(=O)O)cc1`, the IC50 was determined as 2.6 µM. Against the preceding molecule, the IC50 is about 2.6-fold higher.
Molecule `O=C(O)[C@H](Cc1ccc(OCc2c(Cl)cccc2Cl)cc1)NC(=O)[C@@H]1OCO[C@H]1C(=O)N1CCOCC1` registered an IC50 of 3.4 µM.

System in another data set: not listed separately
The experiment in a line: Oral bioavailability in rat. Type of data set: ADME, organism-based. The note with it: in vivo.
`Cc1ccc(S(=O)(=O)N2CCC[C@H]2C(=O)N[C@@H](Cc2ccccc2)C(=O)O)cc1` (Tos-Pro-Phe-OH) displayed a bioavailability of 10%.

Source of the values: ChEMBL document CHEMBL1221346, “Synthesis and biological activity of N-substituted aminocarbonyl-1,3-dioxolanes as VLA-4 antagonists” (Bioorg Med Chem Lett, 2010).
